{"source": "patent US20140249101A1", "about": "“METHODS FOR TREATING HEPATITIS C VIRUS INFECTION” (Gilead Pharmasset LLC, priority 2013, published 2014)", "origin": "cited, not measured here", "tested_on": "hepatitis C virus (HCV)", "details": "ribavirin alone", "note": "“Also recorded” adds a separate entry of the source."}
{"smiles": "NC(=O)c1ncn([C@@H]2O[C@H](CO)[C@@H](O)[C@H]2O)n1", "note": "[ribavirin, 1-β-d-ribofuranosyl-1H-1,2,4-triazole-3-carboxamide]", "values": [{"measurement": "sustained virologic response", "result": "did not produce any sustained virologic response; also recorded: has not been shown to produce SVR"}, {"measurement": "effect on HCV RNA levels", "setting": "during or after therapy", "result": "did not reduce HCV RNA levels during or after therapy; also recorded: little or no effect on HCV RNA levels"}, {"measurement": "effect on alanine aminotransferase (ALT) levels", "setting": "during the course of treatment, some patients with CHC", "result": "can normalize alanine aminotransferase (ALT) levels transiently; also recorded: normalized alanine aminotransferase (ALT) levels transiently"}]}
